Laboratory results taken from BindingDB's records for patent US12544382 (Beijing Tide Pharmaceutical Co., 2026).

Target: Serine/threonine-protein kinase ATR (Homo sapiens, UniProt Q13535)
Experiment: ATR Kinase Activity Assay
Protocol: Biotinylated protein derived from p53 (Eurofins, art. No.: 14-952) was phosphorylated with ATR kinase. The amount of phosphorylated protein was determined by time-resolved fluorescence in this assay. The amount of phosphorylated protein was detected by anti-p53-phospho-(serine 15)-K-specific antibody (Cisbio, art. No.: 61GSTDLA) and d2 labeled anti-GST antibody (Cisbio, art. No. 61P08KAE). Before the experiment, the following working solution was prepared as required: 1× reaction buffer (20 mM HEPES PH8.0, 1% glycerol, 0.01% Brij-35), dilution buffer (20 mM HEPES PH8.0, 1% glycerol, 0.01% Brij-35, 5 mM DTT and 1% BSA), stop solution (20 mM HEPES PH8.0, 1% glycerol, 0.01% Brij-35, 250 mM EDTA), detection buffer (50 mM HEPES pH7.0, 150 mM NaCl, 267 mM KF, 0.1% sodium cholate, 0.01% Tween-20, 0.0125% sodium azide). The reagents used above are purchased from Sigma or Invitrogen, except for those where the manufacturer was mentioned.

Chain of Serine/threonine-protein kinase ATR (Q13535 whole entry): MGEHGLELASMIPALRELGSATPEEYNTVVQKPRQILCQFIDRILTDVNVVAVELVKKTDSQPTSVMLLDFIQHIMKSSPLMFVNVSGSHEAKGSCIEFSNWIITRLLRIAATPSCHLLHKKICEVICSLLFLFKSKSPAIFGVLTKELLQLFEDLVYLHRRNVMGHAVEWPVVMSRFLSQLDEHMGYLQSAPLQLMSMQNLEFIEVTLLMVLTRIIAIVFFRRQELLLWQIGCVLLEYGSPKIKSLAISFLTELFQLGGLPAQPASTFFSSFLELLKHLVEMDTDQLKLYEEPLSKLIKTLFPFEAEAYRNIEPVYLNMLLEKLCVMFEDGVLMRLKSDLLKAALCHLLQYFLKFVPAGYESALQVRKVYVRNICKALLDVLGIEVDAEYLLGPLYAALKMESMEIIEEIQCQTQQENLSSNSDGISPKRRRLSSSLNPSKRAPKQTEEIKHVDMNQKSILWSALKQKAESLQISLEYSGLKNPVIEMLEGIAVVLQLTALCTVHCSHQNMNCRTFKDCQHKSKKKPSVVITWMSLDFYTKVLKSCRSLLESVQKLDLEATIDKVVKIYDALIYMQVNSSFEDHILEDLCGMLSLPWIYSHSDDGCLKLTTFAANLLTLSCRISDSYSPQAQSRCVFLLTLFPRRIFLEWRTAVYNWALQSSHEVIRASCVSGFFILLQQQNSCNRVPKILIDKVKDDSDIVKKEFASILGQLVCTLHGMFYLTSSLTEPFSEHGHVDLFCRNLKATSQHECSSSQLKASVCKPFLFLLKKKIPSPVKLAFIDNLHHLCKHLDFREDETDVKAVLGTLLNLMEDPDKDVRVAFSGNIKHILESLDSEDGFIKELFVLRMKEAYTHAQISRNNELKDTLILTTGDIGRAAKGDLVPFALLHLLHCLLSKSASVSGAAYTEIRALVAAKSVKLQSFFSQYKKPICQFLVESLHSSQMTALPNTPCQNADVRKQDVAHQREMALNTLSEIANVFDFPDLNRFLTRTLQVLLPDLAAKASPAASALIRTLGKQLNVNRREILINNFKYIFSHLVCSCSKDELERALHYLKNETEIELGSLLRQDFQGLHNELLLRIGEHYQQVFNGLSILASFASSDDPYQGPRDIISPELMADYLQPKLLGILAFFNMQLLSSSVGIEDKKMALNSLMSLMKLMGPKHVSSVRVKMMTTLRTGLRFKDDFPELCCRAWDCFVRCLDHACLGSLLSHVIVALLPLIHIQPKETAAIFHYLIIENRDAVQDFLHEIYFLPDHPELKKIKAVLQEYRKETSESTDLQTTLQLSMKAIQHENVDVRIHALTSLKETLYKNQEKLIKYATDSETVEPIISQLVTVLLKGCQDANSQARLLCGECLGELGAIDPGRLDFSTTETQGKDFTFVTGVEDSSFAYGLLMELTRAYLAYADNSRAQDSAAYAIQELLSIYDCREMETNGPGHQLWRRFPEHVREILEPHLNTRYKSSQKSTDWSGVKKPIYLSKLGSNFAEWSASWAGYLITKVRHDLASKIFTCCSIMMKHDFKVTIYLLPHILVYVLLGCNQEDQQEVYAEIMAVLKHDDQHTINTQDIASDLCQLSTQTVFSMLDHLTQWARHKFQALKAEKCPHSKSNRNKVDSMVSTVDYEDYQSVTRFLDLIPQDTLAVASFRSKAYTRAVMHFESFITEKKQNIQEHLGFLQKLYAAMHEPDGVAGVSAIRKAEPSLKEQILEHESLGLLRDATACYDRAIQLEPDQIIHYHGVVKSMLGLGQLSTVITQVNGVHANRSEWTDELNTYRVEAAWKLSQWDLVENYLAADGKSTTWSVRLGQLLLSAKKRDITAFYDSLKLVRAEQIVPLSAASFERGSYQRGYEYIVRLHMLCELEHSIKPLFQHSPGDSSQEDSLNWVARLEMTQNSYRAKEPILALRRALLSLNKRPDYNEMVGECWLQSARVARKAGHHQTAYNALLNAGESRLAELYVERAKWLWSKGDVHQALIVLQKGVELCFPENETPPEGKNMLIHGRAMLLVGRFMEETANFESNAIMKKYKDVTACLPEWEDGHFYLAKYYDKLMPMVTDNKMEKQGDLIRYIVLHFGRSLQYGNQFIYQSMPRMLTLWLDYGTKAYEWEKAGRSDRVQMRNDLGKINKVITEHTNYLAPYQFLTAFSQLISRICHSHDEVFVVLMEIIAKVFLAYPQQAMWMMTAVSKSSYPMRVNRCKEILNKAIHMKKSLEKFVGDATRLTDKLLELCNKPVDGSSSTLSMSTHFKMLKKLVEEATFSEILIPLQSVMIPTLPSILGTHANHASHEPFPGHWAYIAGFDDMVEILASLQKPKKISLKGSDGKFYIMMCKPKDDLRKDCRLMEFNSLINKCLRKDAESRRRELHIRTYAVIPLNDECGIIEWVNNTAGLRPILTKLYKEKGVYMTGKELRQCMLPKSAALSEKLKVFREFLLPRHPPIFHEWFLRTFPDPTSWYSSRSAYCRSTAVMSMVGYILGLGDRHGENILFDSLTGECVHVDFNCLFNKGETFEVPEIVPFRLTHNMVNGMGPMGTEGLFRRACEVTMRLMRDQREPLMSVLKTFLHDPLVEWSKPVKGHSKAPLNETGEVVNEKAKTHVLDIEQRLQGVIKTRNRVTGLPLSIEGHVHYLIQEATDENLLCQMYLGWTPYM

With `Cc1nn(C)c(C)c1-c1cc(N2CCOC[C@H]2C)nc(-c2ccnc(C(F)F)c2)n1` [US12544382, Example A25] as the compound, how does the IC50 read?
The IC50 was 2320 nM.

For `Cc1n[nH]c(C)c1-c1cc(N2CCOC[C@H]2C)nc(-c2ccnc3c2ccn3CC2CNC2)n1` [US12544382, Example A27], which IC50 is on record?
Its IC50 is 47 nM.

For `CNc1nc2ccccc2n1-c1nc(-c2c(C)nn(C3CCNCC3)c2C(F)(F)F)cc(N2CCOC[C@H]2C)n1` [US12544382, Example D24], which IC50 is on record?
Its IC50 is 3 nM.

For `CNc1nc2cc(Cl)ccc2n1-c1nc(-c2c(C)nn(C3CCNCC3)c2C(F)(F)F)cc(N2CCOC[C@H]2C)n1` [US12544382, Example D25], which IC50 is on record?
Its IC50 is 83 nM.
